# According to patent publication US8058242B2, “Chimeric proteins with natriuretic activity” (The University of Queensland, priority 2004, dated 2011):
# Positions of bridges follow the written chain, without caps; N, C: chain ends. Residues, ends and D or L forms follow the SMILES beside them.
# Assays:
# rat GC-A = molecular target: T1, rat GC-A (Rattus norvegicus, UniProt P18910); test: Cell cyclic GMP elevations in HEK-293 cells stably expressing rat GC-A (Example 4); format: cell-based; details: 0.1 μM; 293 cells over-expressing GC-A
# T1 construct: expressed in transfected cells
# T1 sequence (P18910 29-1057): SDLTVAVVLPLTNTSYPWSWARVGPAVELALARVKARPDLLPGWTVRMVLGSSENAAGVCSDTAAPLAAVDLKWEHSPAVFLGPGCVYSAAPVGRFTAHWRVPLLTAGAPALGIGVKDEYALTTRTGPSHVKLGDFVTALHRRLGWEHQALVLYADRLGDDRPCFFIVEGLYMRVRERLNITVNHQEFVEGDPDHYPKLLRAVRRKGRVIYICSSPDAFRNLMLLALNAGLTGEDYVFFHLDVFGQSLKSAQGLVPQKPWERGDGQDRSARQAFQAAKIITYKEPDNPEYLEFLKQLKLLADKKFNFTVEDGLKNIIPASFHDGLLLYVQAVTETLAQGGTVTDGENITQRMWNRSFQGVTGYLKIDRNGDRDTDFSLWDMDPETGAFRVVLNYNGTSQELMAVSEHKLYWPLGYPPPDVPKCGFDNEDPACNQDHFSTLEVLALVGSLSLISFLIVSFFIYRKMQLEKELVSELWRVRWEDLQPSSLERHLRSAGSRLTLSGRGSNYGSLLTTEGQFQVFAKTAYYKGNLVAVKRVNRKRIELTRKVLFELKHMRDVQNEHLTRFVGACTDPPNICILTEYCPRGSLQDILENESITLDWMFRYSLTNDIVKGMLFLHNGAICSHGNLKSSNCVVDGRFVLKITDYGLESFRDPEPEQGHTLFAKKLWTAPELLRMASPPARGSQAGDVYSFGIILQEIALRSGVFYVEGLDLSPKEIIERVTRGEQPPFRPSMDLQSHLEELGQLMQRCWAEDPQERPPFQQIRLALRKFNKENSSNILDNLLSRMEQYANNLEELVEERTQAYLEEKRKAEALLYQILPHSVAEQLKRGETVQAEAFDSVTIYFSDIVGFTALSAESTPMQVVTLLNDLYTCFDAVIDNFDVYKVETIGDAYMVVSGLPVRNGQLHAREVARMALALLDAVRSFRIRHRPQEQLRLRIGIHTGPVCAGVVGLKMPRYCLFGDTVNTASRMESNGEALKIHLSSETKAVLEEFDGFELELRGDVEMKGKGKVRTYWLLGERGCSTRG
# Description: The human embryonic kidney 293 (HEK-293) cell line was used for the stable expression of rat GC-A (GC-A/293). Cells expressing rat GC-A (GC-A/293) in the HEK-293 cell line were as previously described (Potter L. R., and Garbers D. L., (1992), J Biol Chem. 26, 14531-4) and determination of cGMP elevations was undertaken as previously described (Chrisman et al. T. D., Schulz, S., Potter, L. R. and Garbers, D. L., (1993,) J. Biol. Chem. (1993) 268 (5), 3698-3703). Responses were expressed as a percentage of the effect produced by ANP.
# [1] = Stability assay in rat plasma (Example 6); format: in vitro ADME; details: 24 h at 37° C., read-out: peptide remaining in plasma
# Procedure: Stability assay in human and rat plasma: Human or rat plasma (sample size 200 μL) was incubated at 37° C. for 5 min. 50 μL peptide stock solution (5 mg/mL) was added to the plasma. The vortexed reaction mixture was incubated at 37° C. Sample aliquots of 30 μL were taken from the reaction mixture at sequential intervals of 0 h, 1 h, 2 h, 4 h and 24 h and the sample reaction quenched immediately with 30 μL extraction buffer containing 50% Acetonitrile, 50% 0.1 M NaCl and 1% TFA. The quenched aliquots were cooled in ice for 5 min prior to centrifugation at 14,000 rpm for 15 min. 20 μl of the supernatant from each of the centrifuged aliquots was injected into RP-HPLC for analysis.
# [2] = tested on: rats with chronic heart failure; test: Rat model of chronic heart failure, left coronary artery occlusion, anesthetized (Example 10); details: HF rats
smiles,measurement,setting,value
CC[C@H](C)[C@H](NC(=O)[C@H](CCCCN)NC(=O)[C@H](CO)NC(=O)[C@H](CC(=O)O)NC(=O)[C@@H](N)CO)C(=O)NCC(=O)N[C@@H](CC(N)=O)C(=O)NCC(=O)N[C@H]1CSSC[C@@H](C(=O)N[C@@H](CC(N)=O)C(=O)N[C@@H](CCCNC(=N)N)C(=O)N[C@H](C(=O)N[C@@H](CCSC)C(=O)N[C@@H](CCC(N)=O)C(=O)N[C@@H](CC(N)=O)C(=O)N2CCC[C@H]2C(=O)N2CCC[C@H]2C(=O)N[C@@H](CCCCN)C(=O)N[C@@H](CCCCN)C(=O)N[C@@H](Cc2ccccc2)C(=O)N[C@@H](CO)C(=O)NCC(=O)N[C@@H](CCC(=O)O)C(=O)O)[C@@H](C)CC)NC(=O)CNC(=O)[C@H](CC(C)C)NC(=O)CNC(=O)[C@H](CO)NC(=O)[C@H](C(C)C)NC(=O)[C@H](CO)NC(=O)CNC(=O)[C@H]([C@@H](C)CC)NC(=O)[C@H](CCCNC(=N)N)NC(=O)[C@H](CC(=O)O)NC(=O)[C@H](CC(C)C)NC(=O)[C@@H]2CCCN2C(=O)[C@H](Cc2ccccc2)NC(=O)CNC(=O)[C@H](Cc2ccccc2)NC1=O [TNPc] (H-SDSKIGNGCFGFPLDRIGSVSGLGCNRIMQNPPKKFSGE-OH; disulfide 9-25),"cGMP elevations, percentage of the effect produced by ANP",rat GC-A,equipotent to ANP and DNP
same,"remaining at 24 h, 1 mg/mL",[1],76%
same,"Blood Flow, mean change from control","[2]; 50 pmol/kg/min, 30 min",-1.6 mL/min
same,"Conductance, mean change from control","[2]; 50 pmol/kg/min, 30 min",−0.2 ml/min/mmHg
same,"Diastolic LVP, mean change from control","[2]; 50 pmol/kg/min, 30 min",−0.9 mmHg
same,"HCT, mean change from control","[2]; 50 pmol/kg/min, 30 min",1.5%
same,"HR, mean change from control","[2]; 50 pmol/kg/min, 30 min",−5.2 bpm
same,"Mean BP, mean change from control","[2]; 50 pmol/kg/min, 30 min",−11.8 mmHg
same,"Urine Flow, mean change from control","[2]; 50 pmol/kg/min, 30 min",1.0 mL/h
same,"Blood Flow, mean change from control","[2]; 100 pmol/kg/min, 30 min",-2.9 mL/min
same,"Conductance, mean change from control","[2]; 100 pmol/kg/min, 30 min",−0.4 ml/min/mmHg
same,"Diastolic LVP, mean change from control","[2]; 100 pmol/kg/min, 30 min",−1.6 mmHg
same,"HCT, mean change from control","[2]; 100 pmol/kg/min, 30 min",2.4%
same,"HR, mean change from control","[2]; 100 pmol/kg/min, 30 min",−14.8 bpm
same,"Mean BP, mean change from control","[2]; 100 pmol/kg/min, 30 min",−20.1 mmHg
same,"Urine Flow, mean change from control","[2]; 100 pmol/kg/min, 30 min",1.7 mL/h
same,"Blood Flow, mean change from control",[2]; Recovery,-0.5 mL/min
same,"Conductance, mean change from control",[2]; Recovery,0.6 ml/min/mmHg
same,"Diastolic LVP, mean change from control",[2]; Recovery,−1.4 mmHg
same,"HCT, mean change from control",[2]; Recovery,0.8%
same,"HR, mean change from control",[2]; Recovery,−16.5 bpm
same,"Mean BP, mean change from control",[2]; Recovery,−13.6 mmHg
same,"Urine Flow, mean change from control",[2]; Recovery,0.9 mL/h
same,"Blood Flow, Average drug response SED",[2]; average of the two doses,-2.2 ± 0.5 mL/min
same,"Conductance, Average drug response SED",[2]; average of the two doses,−0.3 ± 0.3 ml/min/mmHg
same,"Diastolic LVP, Average drug response SED",[2]; average of the two doses,−1.2±0.5 mmHg
same,"HCT, Average drug response SED",[2]; average of the two doses,1.9 ± 0.5%
same,"HR, Average drug response SED",[2]; average of the two doses,−10.0 ± 6.9 bpm
same,"Mean BP, Average drug response SED",[2]; average of the two doses,−15.9±4.1 mmHg
